Patent US8648100B2, “Roflumilast for the treatment of pulmonary hypertension” (Takeda GmbH, priority 2005, dated 2014)
Read-outs that look alike come from different tables or passages of the source.

What was measured:
Assay type in all cases: in vivo, adult male Wistar rats
[1] = system: chronic hypoxia-induced pulmonary arterial hypertension in rats; settings: for PAP: mean ± SEM; for RV/LV + S: right ventricular hypertrophy index; for Muscularization: distal pulmonary arteries
Protocol: (§1) The objective of the pharmacological investigation was to characterize the effect of orally administered Roflumilast at 0.5 mg kg^−1 d^−1 and 1.5 mg kg^−1 d^−1 on the increase in mean PAP and RV/LV+S ratio as well as distal arteriolar muscularization triggered by chronic hypoxia or monocrotalin (MCT) in rats. Hypoxia- or MCT-induced pulmonary hypertension in rats represent widely accepted animal models to study the potential of investigative drugs to reverse chronic pulmonary hypertension based on pulmonary vascular remodelling. In the MCT setting Roflumilast was administered both in preventive and curative paradigms.
(§2) Experiments were performed with adult male Wistar rats (200-250 g) according to institutional guidelines abiding to national and international regulations.
Rats were exposed to chronic hypoxia (10% O2) in a ventilated chamber (500-liter volume, Flufrance, Cachan, France). To establish the hypoxic environment, the chamber was flushed with a mixture of room air and nitrogen, and the gas was recirculated. The environment within the chamber was monitored using an oxygen analyzer (Oxiquant M, EnviTeC—Wismar, Germany). Carbon dioxide was removed by self-indicating soda lime granules. Excess humidity was prevented by cooling of the recirculation circuit. The chamber temperature was maintained at 22-24° C. The chamber was opened every other day for 1 hour to clean the cages and replenish food and water supplies. Normoxic control rats were kept in the same room with identical light-dark cycle. Rats exposed to chronic hypoxia were randomly assigned to three groups (8-10 animals per group): the first group received Roflumilast at 0.5 mg kg^−1 d^−1, the second group received Roflumilast at 1.5 mg kg^−1 d^−1, the third group received vehicle (methocel). A group not exposed to hypoxia served as control. Roflumilast or vehicle were administered once daily by gavage over 15 days of exposure to hypoxia.
(§3) At the end of the treatment period rats were anaethesized with sodium pentobarbital (60 mg/kg, i.p.). A polyvinyl catheter was introduced into the right jugular vein and pushed through the right ventricle into the pulmonary artery. Another polyethylene catheter was inserted into the right carotid artery. After measurement of pulmonary (PAP) and systemic arterial pressures (SAP), the thorax was opened and the left lung immediately removed and frozen in liquid nitrogen. The heart was dissected and weighed for calculation of the right ventricular hypertrophy index (ratio of right ventricular free wall weight over sum of septum plus left ventricular free wall weight; RV/LV+S). The right lung was fixed in the distended state with formalin buffer. After routine processing and paraffin embedding, multiple sections from each lobe were stained with haemotoxylin and eosin. In each rat, 60 intraacinar arteries were analyzed and categorized as muscular (fully or partially) or nonmuscular to assess the degree of muscularization. In addition, intraacinar fully muscularized arteries were evaluated for measurements of medial wall thickness which was calculated and expressed as follows: index (%)=(External diameter−internal diameter)/External diameter×100%.
(§4) The data are expressed as means±SEM. A nonparametric Mann-Whitney test was used for comparisons between two groups. Comparisons of data at various times after MCT injection or of various treatment groups were performed using a nonparametric Kruskal-Wallis test followed by Dunn's test when significant. To compare the degree of pulmonary vessels muscularization between groups, we used a non parametric Mann-Whitney or a Kruskal-Wallis test after ordinal classification of the vessels as non muscular, partially muscular, or fully muscular.

[2] = system: monocrotaline (MCT)-induced pulmonary arterial hypertension in rats (curative approach); experiment: Monocrotaline (MCT)-induced pulmonary hypertension in rats, curative approach (treatment day 21 to day 42)
Protocol: (§5) Rats were randomly assigned to three groups (8-10 animals in each group): two groups received Roflumilast 0.5 and 1.5 mg kg^−1 d^−1, respectively; and one group received vehicle. In the preventive treatment paradigm Roflumilast or vehicle were given once daily by gavage for 21 days starting immediately after a single subcutaneous injection of MCT (60 mg kg^−1). A group not receiving MCT served as control. In a curative approach rats were left untreated for 21 days following MCT (60 mg/kg s.c.) and than randomly divided into two groups, one received roflumilast (1.5 mg/kg/d) p.o. and the other vehicle, from day 21 to day 42.
as §3, §4
In a curative approach Roflumilast (1.5 mg/kg/d) p.o. or vehicle were administered beginning at day 21 following MCT i.e. when pulmonary vascular remodeling and consequently augmented PAP and right ventricular hypertrophy were manifest. After another 3 weeks (i.e. at day 42) PAP was measured and rats were sacrificed to assess RV/LV+S ratio and muscularization of distal pulmonary arteries.

[3] = system: monocrotaline (MCT)-induced pulmonary arterial hypertension in rats; experiment: Monocrotaline (MCT)-induced pulmonary hypertension in rats, preventive treatment paradigm; settings: for PAP: mean ± SEM; for Muscularization: distal pulmonary arteries; for RV/LV + S: right ventricular hypertrophy index
Protocol: as §1, §2, §5, §3, §4

[4] = Hypoxia 15 days + 0.5 mg/kg Roflumilast once daily by gavage
[5] = Hypoxia 15 days + 1.5 mg/kg Roflumilast once daily by gavage
[6] = Day 42, Roflumilast 1.5 mg/kg/d p.o. starting day 21 after MCT
[7] = MCT + 0.5 mg/kg Roflumilast for 21 days
[8] = MCT + 1.5 mg/kg Roflumilast for 21 days
[9] = conclusion for pulmonary hypertension triggered by hypoxia or monocrotaline in rats

In the case of `O=C(Nc1c(Cl)cncc1Cl)c1ccc(OC(F)F)c(OCC2CC2)c1` [Roflumilast, 3-cyclopropyl-methoxy-4-difluoromethoxy-N-(3,5-dichloropyrid-4-yl)benzamide], the PAP [1, 4] is reported as 28 ± 1.8 mm Hg, the “RV/LV + S” value [1, 4] is reported as 37.8 ± 2.3% and the Muscularization ([1]; Hypoxia 15 days + 0.5 mg/kg Roflumilast) is reported as 31.8 ± 2%. For the same compound, the PAP [1, 5] was 25.5 ± 1.8 mm Hg, the “RV/LV + S” value [1, 5] was 30.5 ± 0.8% and the Muscularization ([1]; Hypoxia 15 days + 1.5 mg/kg Roflumilast) was 18.5 ± 2%. The PAP [2, 6] was 23.6 ± 0.7 mmHg, the “RV/LV + S” value [2, 6] was 33.8 ± 0.9% and the Muscularization ([2]; Day 42, Roflumilast 1.5 mg/kg/d p.o. starting day 21 after MCT, distal pulmonary arteries) was 36.4 ± 2.4%. For the same compound, the “survival rate (animals alive at day 42)” value ([2]; Roflumilast 1.5 mg/kg/d from day 21, 17 of 24 rats, vehicle 54%) was 71%, the “reduction of the proportion of fully muscularized arterioles” value ([2]; at day 42, Roflumilast 1.5 mg/kg/d from day 21) was > 50% and the “Medial wall thickness index of the fully muscularized pulmonary arterioles” value ([2]; at day 42, Roflumilast 1.5 mg/kg/d from day 21, vehicle 52±4%) was 18±2%. The “ratio of completely obliterated arterioles” value ([2]; at day 42, Roflumilast 1.5 mg/kg/d from day 21, vehicle 66±3%) was 30±5%, the PAP ([3]; MCT 60 mg/kg s.c. + 0.5 mg/kg Roflumilast once daily by gavage for 21 days) was 29.3 ± 1.3 mm Hg and the PAP ([3]; MCT 60 mg/kg s.c. + 1.5 mg/kg Roflumilast once daily by gavage for 21 days) was 21.4 ± 2.0 mm Hg. The Muscularization [3, 7] was 62.7 ± 5.4%, the “RV/LV + S” value [3, 7] was 38.9 ± 1.6% and the Muscularization [3, 8] was 30.3 ± 8.2%. The “RV/LV + S” value [3, 8] was 31.3 ± 1.8%, the heart rate [3, 9] was “unaffected” and the systemic arterial pressure [3, 9] was “unaffected”.
